IC50 data for 5 molecules are collected here from patent US5654296A, “Condensed heterocyclic compounds, their production and use” (priority 1994, dated 1997).

The test system of assay [1] is 45Ca2+ uptake (veratrine-stimulated, rat cerebral cortex crude synaptosome fraction). The assay can be described thus: 45Ca2+ uptake inhibition experiment. Format: biochemical. As to conditions: 30 μM veratrine, 37° C., 10 minutes, read-out: 45Ca2+ uptake inhibitory activity (IC50 μM). An outline of the steps: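 Rat cerebral cortex crude synaptosomes preincubated with test drug 10 min at 37° C, then stimulated with 30 μM veratrine plus 45Ca2+ for 10 min at 37° C; quenched with EGTA, filtered, radioactivity counted by liquid scintillation. Inhibition rate derived from uptake with/without drug and with/without veratrine.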

The target of assay [2] is T1, GnRH receptors (rat pituitary anterior lobe membrane fraction) (Rattus norvegicus, UniProt P30969).
T1 construct: the anterior lobe of the pituitary gland was isolated and washed with ice-cooled homogenate buffer; from tissue; host or cells: anterior lobe of the pituitary gland, male Wistar rats (8 weeks old), membrane fraction
T1 sequence (P30969 1-327): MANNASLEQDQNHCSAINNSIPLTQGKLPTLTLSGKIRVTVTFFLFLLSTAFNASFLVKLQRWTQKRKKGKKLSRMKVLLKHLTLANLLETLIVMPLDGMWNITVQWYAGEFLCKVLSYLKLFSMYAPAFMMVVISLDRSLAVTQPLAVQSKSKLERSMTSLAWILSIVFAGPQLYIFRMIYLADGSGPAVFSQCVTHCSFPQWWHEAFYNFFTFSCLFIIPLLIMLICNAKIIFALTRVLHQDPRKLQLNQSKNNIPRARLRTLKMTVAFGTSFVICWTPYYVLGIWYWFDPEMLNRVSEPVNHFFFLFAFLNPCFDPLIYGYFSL
The assay can be described thus: 125I-leuprolerin GnRH receptor binding inhibition test, rat pituitary anterior lobe membrane fraction. Conditions: 4° C., 90 minutes, read-out: Binding inhibitory activity (IC50 μM) Rat. The procedure: Ten (10) μl of 3×10^4 M aqueous leuprolerin solution and 10 μl of 0.01 mg/ml lactoperoxidase were taken in a tube and 10 μl of Na^125 I solution (37 MBq) was added. After stirring, 10 μl of 0.001% H2 O2 was added and the reaction was conducted at room temperature for 20 minutes. Then, 700 μl of 0.05% TFA solution was added to the tube to terminate the reaction and the reaction mixture was purified by reverse-phase HPLC. The HPLC conditions are shown below. ^125 I-leuprolerin was eluted after a retention time of 26-27 minutes. (B) Preparation of a Rat Pituitary Anterior Lobe Membrane Fraction Containing GnRH Receptors […] The pituitary tissue was floated in 2 ml of the homogenate buffer and homogenized using a Polytron homogenizer. The homogenate was centrifuged at 700×G for 15 minutes. The supernatant was taken in an ultracentrifuge tube and centrifuged at 100,000×G for 1 hour to provide a membrane fraction pellet. […] The membrane fraction recovered as a pellet was resuspended in 10 ml of assay buffer, divided into portions, preserved at -80° C. and thawed when needed. […] For the rat and human membrane fractions prepared in (B) and (D), each membrane fraction was diluted with assay buffer to a concentration of 200 μg/ml and distributed in 188 μl portions into tubes. As to the bovine membrane fraction prepared in (C), the membrane fraction was diluted with assay buffer to 750 μg/ml and distributed in 188 μl portions into tubes. […] Where the rat or bovine pituitary anterior lobe membrane fraction was used, the reaction was conducted at 4° C. for 90 minutes. Where the membrane fraction of the CHO with human GnRH receptors expressed was used, the reaction was carried out at 25° C. for 60 minutes. […] After filtration, the radioactivity of ^125 I-leuprolerin remaining on the filter was measured with a γ-counter. The expression (TB-SB)/(TB-NSB)×100 (where SB=radioactivity with the compound added, TB=maximum bound radioactivity, NSB=nonspecifically bound radioactivity) was calculated to find the binding inhibition rate of each test compound.

Assay [3] relates to norepinephrine (NE) uptake. Put plainly: Activity to inhibit norepinephrine (NE) uptake. Format: biochemical. As to conditions: rat cerebral cortex; 3H-NE; read-out: NE uptake inhibitory activity (IC50 μM). The procedure: The experiment was performed in accordance with the method of Hyttel et al. [Psychopharmacology 60, 13, 1978]. The whole brain of a rat was homogenized in 40 volumes of ice-cooled 0.32M sucrose solution containing 10 μM pargyline and, then, centrifuged (600×G) for 10 minutes. The supernatant was centrifuged (2500×G) for 55 minutes to provide a pellet. This pellet was suspended in Krebs-Ringer-phosphate buffer (pH 7.4; 122 mM NaCl, 4.82 mM KCl, 0.972 mM CaCl2, 1.21 mM MgSO4, 12.7 mM Na2 HPO4, 2.97 mM NaH2 PO4, 0.162 mM EDTA sodium, 10 mM glucose, 1.14 mM ascorbic acid) saturated with a mixed gas (95% O and 5% CO2). To 900 μl of this suspention was added a solution of the test drug (10 μl) in DMSO and the mixture was incubated at 37° C. for 5 minutes. Then, 100 μl of ^3 H-5-HT (final concentration 10 nM) was added and the mixture was further incubated at 37° C. for 5 minutes. This reaction mixture was filtered under suction using a GF/B filter and the filter was washed with 4 ml of the above-mentioned buffer. The radioactivity on the filter was measured by the liquid scintillation method.
(b) Activity to inhibit norepinephrine (NE) uptake
Using the rat cerebral cortex and, as the substrate, ^3 H-NE, an experiment was performed by otherwise the same procedure as described for 5-HT.

Structures are written as SMILES. Where a name gives a salt, the structure may show the parent alone.

For the molecule `c1ccc(CCNCCCC2(c3ccccc3)COCc3ccccc32)cc1` (stereo not drawn) [Example I-24, 4-[3-(β-Phenethylamino)propyl]-4-phenylisochroman hydrochloride], the IC50 is 1.77 µM in assay [1], 0.9 µM in assay [2] and 0.22 µM in assay [3].
In the same order, the values of `c1ccc(C2(CCCN3CCCCC34CCc3ccccc3C4)COCc3ccccc32)cc1` (centres unmarked) [Example I-35, 3,4-Dihydro-1'-[3-(4-phenylisochroman-4-yl)propyl]spiro[naphthalene-2(1H),2'-piperidine] hydrochloride] are 0.14 µM, 0.7 µM and 0.3 µM.
Take `COc1ccc2c(c1)CCC1(CCCCN1CCCC1(c3ccccc3)COCc3ccccc31)C2` (centres unmarked) [Example I-36, 3,4-Dihydro-6-methoxy-1'-[3-(4-phenylisochroman-4-yl)propyl]spiro[naphthalene-2(1H),2'-piperidine] hydrochloride]: the results for the IC50 in assay [1], in assay [2] and in assay [3] were 0.76 µM, 0.6 µM and 0.41 µM, respectively.
In the case of `COC(=O)c1cccc(CNCCCC2(c3ccccc3)COCc3ccccc32)c1` (stereo not drawn) [Example I-45, Methyl α-[3-(4-Phenylisochroman-4-yl)propylamino]-m-toluate hydrochloride], the IC50 in assay [2] is 0.5 µM.
On the same count and under the same terms, the value for `COc1cc2c(cc1OC)CC1(CCCCN1CCCCC1(c3ccccc3)COCc3ccccc31)CC2` (centres unmarked) [Example I-52, 3,4-Dihydro-6,7-dimethoxy-1'-[4-(4-phenylisochroman-4-yl)butyl]spiro[naphthalene-2(1H),2'-piperidine] hydrochloride] was 0.03 µM.
